Earlier results, collected in US5547866A (priority 1994, dated 1996).

Tested on: breast, lung and other cancers
Details: background

## CC(=O)O[C@H]1C(=O)[C@@]2(C)[C@H]([C@H](OC(=O)c3ccccc3)[C@]3(O)C[C@H](OC(=O)[C@H](O)[C@@H](NC(=O)c4ccccc4)c4ccccc4)C(C)=C1C3(C)C)[C@]1(OC(C)=O)CO[C@@H]1C[C@@H]2O [taxol]
  activity against breast, lung and other cancers: shown activity against breast, lung and other cancers
